Results from patent US20080146650A1, “PHARMACEUTICAL COMPOSITION COMPRISING A-LIPOIC ACID FOR INFLAMMATORY DISEASES” (priority 2005, published 2008).

How the values were obtained:
SP-1 = experiment: EMSA for SP-1 binding activity in nuclear extracts of HUVECs; details: FIG. 5b
Experimental: Briefly, the cells were lysed in a hypotonic buffer (10 mmol/L HEPES, pH 7.9, 1.5 mmol/L MgCl2, 10 mmol/L KCl, 0.5 mmol/L DTT, 0.5 mmol/L PMSF) containing 0.6% NP-40 and centrifuged at 4000 rpm for 15 min. […] Seventy five microliter of storage buffer (20 mmol/L HEPES, pH7.9, 100 mmol/L NaCl, 20% glycerol, 0.2 mmol/L EDTA, 0.5 mmol/L PMSF, 0.5 mmol/L DTT) was added, agitated for 10 sec by vortexing, and centrifused at 14,000 rpm for 20 min. […] EMSA for SP-1 protein was performed with biotin-labeled SP-1 binding site oligomer 5′-[sequence]

fractalkine protein = experiment: Western blot analysis of fractalkine protein in HUVECs; assay type: cell-based, human
Experimental: (§1) Recombinant human TNF-α was purchased from R&D Systems (Minneapolis, Minn.). Anti-fractalkine antibody was purchased from Torrey Pines BioLabs (Houston, Tex.). LPS was purchased from Sigma-Aldrich (St. Louis, Mo.). LA (Thioctacid 600®) was obtained from VIATRIS GmbH & Co. KG (Frankfurt, Germany). Calcein-AM was purchased from Molecular Probe (Eugene, Oreg.). Media, sera, and other biochemical reagents were purchased from Sigma-Aldrich, unless otherwise specified. HUVECs were prepared from human umbilical cords by collagenase digestion as previously described (Kim W et al., FASEB J. 2003 17: 1337-19395. Homogeneity of endothelial cells in cultures was confirmed by the presence of factor VIII using immunofluorescence method. HUVECs were maintained in M-199 medium supplemented with 20% (vol/vol) fetal bovine serum at 37° C. in a 5% CO2atmosphere. The primary cultured cells used in this study were between 2 and 4 passages.
Western blot analyses were performed as previously described (Aim S Y et al., Am J Pathol 2004 164: 1663-1672). Samples were mixed with sample buffer, boiled for 10 minutes, separated by SDS-PAGE electrotransfered to nitrocellulose membranes. The nitrocellulose membranes were blocked by incubation in blocking buffer, incubated with anti-fractalkine monoclonal antibody, washed, and incubated with horseradish peroxidase-conjugated secondary antibody. […]

serum IL-1β = experiment: Serum IL-1β by ELISA after intravenous LPS in rats; assay type: in vivo, rat; details: for serum level of IL-1β: rats, LPS 10 mg/kg intravenous by tail vein
Experimental: (§2) Blood samples (0.5 ml) were taken from rats at 0, 1, 2, 3, and 4 hours after the administration of LPS (10 mg/kg) or vehicle. Serum concentrations of TNF-α and IL-1β were determined by using ELISA kits (Endogen, Woburn, Mass.).
(§3) Serum concentrations of TNF-α and IL-1β were determined by using Enzyme-Linked Immunosorbent Assay (ELISA) Kits (Endogen, Woburn, Mass.). […] Thus, we used TNF-α- and IL-1β in this experiment.
(§4) Inbred male Sprague-Dawley rats (150-200 g) were obtained from Orient (Charles River Korea, Seoul, Korea) and were maintained on standard laboratory chow and water ad libitum. All animal studies were reviewed and approved by the Institutional Animal Care and Use Committee of Chonbuk National University Medical School. The rats (180-220 g) were divided into 3 groups; control (n=6), LPS (10 mg/kg) (n=6), and LPS (10 mg/kg) plus LA (10 mg/kg/day) (n=6). Control buffer and LPS were injected intravenously through the tail vein. LA was injected intraperitoneally once per day for three days prior to LPS administration. At 12 hours postinjection of vehicle or LPS, rats were anesthetized with ketamine (100 mg/kg) and xylazine (10 mg/kg), and subsequently sacrificed by cervical dislocation. Heart and jejunum were harvested for RNase protection assay, Western blot, and immunohistochemistry.

[1] = test system: fractalkine expression in rat small intestine; experiment: Immunohistochemical analysis of fractalkine expression in small intestine of LPS-induced endotoxemia rats; assay type: in vivo; details: LA pretreatment before LPS, 12 hours, FIGS. 7a, 7b
Experimental: as §4
(§5) After sacrifice, the hearts and jejunums were quickly excised, rinsed with PBS, and frozen in OCT in methyl-butane on dry ice. Frozen tissue blocks were sectioned at […], and 8-12 sections of heart or jejunum from each rat were incubated with anti-fractalkine antibody at 4 C overnight. […] Fractalkine expression was semi-quantitated by grading the degree of immunostaining (very strong=5, strong=4, moderate=3, weak=2, none=1). […]

[2] = test system: fractalkine expression in rat heart; experiment: Immunohistochemical analysis of fractalkine expression in heart of LPS-induced endotoxemia rats; assay type: in vivo; details: LA 10 mg/kg/day for 3 days before LPS 10 mg/kg i.v., 12 hours
Experimental: as §4, §5

fractalkine mRNA = experiment: RNase protection assay (RPA) for fractalkine mRNA in HUVECs; assay type: cell-based, human
Experimental: as §1
A part of cDNA of human fractalkine (nucleotides 482-893, GenBank accession NM002996) was amplified by PCR and subcloned into pBluescript II KS+ (Stratagene, La Jolla, Calif.). After linearizing with EcoRI, ^32P-labeled antisense RNA probes were synthesized by in vitrotranscription using T7 polymerase (Ambion Maxiscript kit; Ambion, Austin, Tex.) and gel purified. RPA was performed on total RNAs using the Ambion RPA kit (Ambion, Austin, Tex.). An antisense RNA probe of human cyclophilin (nucleotides 135-239, GenBank accession X52856) was used as an internal control for RNA quantification.

NF-κB (p65/p50) = experiment: EMSA for NF-κB binding activity in nuclear extracts of HUVECs; assay type: cell-based, human
Experimental: EMSA for NF-κB proteins was performed as previously described (Kim I et al., J Biol Chem 2001 276: 7614-7620). Briefly, the cells were lysed in a hypotonic buffer (10 mmol/L HEPES, pH 7.9, 1.5 mmol/L MgCl2, 10 mmol/L KCl, 0.5 mmol/L DTT, 0.5 mmol/L PMSF) containing 0.6% NP-40 and centrifuged at 4000 rpm for 15 min. The pellet was lysed in […] of a high salt buffer (20 mmol/L HEPES, pH 7.9, 420 mmol/L NaCl, 25% glycerol, 1.5 mmol/L MgCl2, 0.2 mmol/L EDTA, 0.5 mmol/L PMSF, 0.5 mmol/L DTT) for 20 min on ice. Seventy five microliter of storage buffer (20 mmol/L HEPES, pH7.9, 100 mmol/L NaCl, 20% glycerol, 0.2 mmol/L EDTA, 0.5 mmol/L PMSF, 0.5 mmol/L DTT) was added, agitated for 10 sec by vortexing, and centrifused at 14,000 rpm for 20 min. Nuclear extracts ([…]) were incubated with approximately 20,000 cpm of ^32P-labeled NF-κB binding site oligomer 5′-[…]-3′ (SEQ ID NO: 1) (Santa Cruz Biotechnology, Santa Cruz, Calif.) for […] at 20 C. EMSA for SP-1 protein was performed with biotin-labeled SP-1 binding site oligomer 5′-[…] (SEQ ID NO: 2) and signals were detected by chemiluminescent imaging according to the manufacturer's protocol (EMSA Gel-Shift. Kit; Panomics, Redwood City, Calif.).
We previously reported that NF-κB is involved in TNF-α induced fractalkine expression in HUVECs (Ahn S Y et al., Am J Pathol 2004 164: 1663-1672). […]

serum TNF-α = experiment: Serum TNF-α by ELISA after intravenous LPS in rats; assay type: in vivo, rat; details: for serum level of TNF-α: rats, LPS 10 mg/kg intravenous by tail vein
Experimental: as §2, §3, §4

[3] = test system: adhesion of monocytes to HUVECs; experiment: Monocyte adhesion assay on HUVECs; assay type: cell-based, human; details: for increase in the adhesion of monocytes compared to treatment with control buffer: stimulation of HUVECs for 6 hours, TNF-α 10 ng/ml or IL-1β 15 ng/ml
Description: Human peripheral blood monocytes were isolated from fresh blood of healthy volunteers by Ficoll-Paque gradient centrifugation. The study protocol and informed consent forms were approved by the Chonbuk. National University Hospital Review Board. Monocytes were isolated by negative selection using magnetic beads (Miltenyi Biotec, Bergisch Gladbach, Germany) (Ancuta P et al., J Exp Med 2003 197: 1701-1707). The purity of the monocyte fraction was 93-95% as determined by staining with anti-CD14, anti-CD33, anti-CD16b, and anti-CD56 mAbs and FACScan analysis (Becton Dickinson, Franklin Lakes, N.J.). Monocyte-endothelial adhesion was determined by fluorescent labeling of monocytes by a method described previously (Kim W. et al., Arterioscler Thromb Vase Biol 2003 23: 1377-1383). A number of monocytes adhered to HUVECs was expressed as percent calculated by the formula: % signal/total signal).

## O=C(O)CCCCC1CCSS1 (stereo not shown) [LA, 1,2-dithiolane-3-pentanoic acid]
SP-1
  effect on TNF-α- and/or IL-1β-induced SP-1 binding activity: decreased
SP-1; LA alone
  effect on basal SP-1 binding activity: no effect
Fractalkine protein
  effect on TNF-α- and/or IL-1β-induced expression of fractalkine protein: decreased
Serum IL-1β; rats pretreated with LA, then LPS, FIG. 1b
  effect on LPS-increased serum IL-1β: significantly inhibited
[1]
  effect on LPS-induced fractalkine expression in arterial endothelial cells and villous endothelium: dramatically suppressed
[2]
  effect on LPS-induced fractalkine expression in arterial endothelial cells, endocardium, and endocardial surface of cardiac valves: dramatically suppressed
Fractalkine mRNA; IL-1β 15 ng/ml, LA 4 mmol/L, FIG. 4b
  suppression of IL-1β-induced expression of fractalkine mRNA: 70-80%
Fractalkine mRNA; TNF-α 10 ng/ml and IL-1β 15 ng/ml together, FIG. 4c
  effect on expression of fractalkine mRNA induced by TNF-α and IL-1β together: suppressed
Fractalkine mRNA; TNF-α 10 ng/ml, LA 4 mmol/L, FIG. 4a
  suppression of TNF-α-induced expression of fractalkine mRNA: 70-80%
NF-κB (p65/p50); LA alone
  effect on basal NF-κB (p65/p50) binding activity: no effect
NF-κB (p65/p50); TNF-α 10 ng/ml and/or IL-1β 15 ng/ml, LA 4 mmol/L, FIG. 5a
  effect on TNF-α- and/or IL-1β-induced NF-κB (p65/p50) binding activity: suppressed
Serum TNF-α; rats pretreated with LA, then LPS, FIG. 1a
  effect on LPS-increased serum TNF-α: significantly inhibited
[3]; IL-1β 15 ng/ml, FIG. 6a, 6b
  decrease in monocyte adhesion to IL-1β-stimulated HUVECs: 76%
[3]; TNF-α 10 ng/ml, FIG. 6a, 6b
  decrease in monocyte adhesion to TNF-α-stimulated HUVECs: 63%
[3]; unstimulated HUVECs
  effect on HUVEC adhesiveness for monocytes, substance alone: no effects

## IL-1β: proinflammatory cytokine used to stimulate HUVECs
[3]
  increase in the adhesion of monocytes compared to treatment with control buffer: 4 fold

## TNF-α
[3]
  increase in the adhesion of monocytes compared to treatment with control buffer: 5 fold

## lipopolysaccharide [LPS]
Serum IL-1β; 1 hour after LPS
  serum level of IL-1β: 104 ± 20 pg/mL
Serum IL-1β; 2 hours after LPS
  serum level of IL-1β: 232 ± 45 pg/mL
Serum IL-1β; 3 hours after LPS
  serum level of IL-1β: 212 ± 19 pg/mL
Serum TNF-α; 3 hours after LPS
  serum level of TNF-α: 975 ± 121 pg/mL
Serum TNF-α; 4 hours after LPS
  serum level of TNF-α: 0 pg/mL
